Assay results from ChEMBL document CHEMBL1143686, “Alkylation potency and protein specificity of aromatic urea derivatives and bioisosteres as potential irreversible antagonists of the colchicine-binding site” (2007).
Activity calls are given as the source filed them. The calls are words filed in the database; no cut-off is given here.

Experiments:
[1] = system: M21; assay: Growth inhibition of human M21 cells after 48 hrs; format: functional; conditions: M21, 48 h
[2] = system: MCF7; assay: Growth inhibition of human MCF7 cells after 48 hrs; format: functional; conditions: MCF7, 48 h
[3] = system: HT-29; assay: Growth inhibition of human HT29 cells after 48 hrs; format: functional; conditions: HT-29, 48 h
[4] = system: M21; assay: Alkylation of beta tubulin in human M21 cells at 25 uM; format: functional, cell-based
[5] = system: M21; assay: Cell cycle arrest by accumulation at G2/M phase in human M21 cells after 24 hrs by flow cytometry; format: functional, cell-based
[6] = system: M21; assay: Alkylation of beta tubulin in human M21 cells at 25 uM after 16 to 24 hrs; format: functional, cell-based

SMILES	GI50 [2] [µM]	GI50 [3] [µM]	GI50 [1] [µM]	Activity [4]	Activity [5]	Activity [6]
Cc1ccc(NC2=NCCO2)c(C)c1	23	15	26	inactive	–	–
O=C(NCCCl)Nc1ccc2c(c1)CCC2	17	4.7	8.9	–	Active	–
Cc1ccc(NC(=O)NCCCl)c(C)c1	–	78	–	–	–	–
Cc1cc(C)cc(NC(=O)NCCCl)c1	31	8.5	16	–	–	–
Cc1ccc(C)c(NC(=O)NCCCl)c1	–	67	–	–	–	–
CC[C@]1(O)C[C@@H]2CN(CCc3c([nH]c4ccccc34)[C@@](C(=O)OC)(c3cc4c(cc3OC)N(C)[C@H]3[C@@](O)(C(=O)OC)[C@H](OC(C)=O)[C@]5(CC)C=CCN6CC[C@]43[C@@H]65)C2)C1 [VINBLASTINE]	0.002	0.002	0.01	–	–	–
CC(C)(C)c1ccc(NC2=NCCO2)cc1	3	1.5	2.4	–	–	Active
Cc1ccc(NC(=O)NCCCl)cc1C	12	4.2	8.4	–	–	–
Cc1ccccc1NC1=NCCO1	21	13	18	–	–	–
Cc1ccc(NC2=NCCO2)cc1C	5.7	2.7	5.1	–	–	Active
Cc1cccc(NC2=NCCO2)c1	52	33	61	–	–	–
O=C(NCCCl)NC1c2ccccc2-c2ccccc21	21	16	38	–	–	–
Cc1ccc(NC2=NCCO2)cc1	27	13	22	–	–	–
Cc1cccc(C)c1/N=C1/NCCO1	23	15	27	–	–	–
O=C(CCl)NC(=O)NC1c2ccccc2-c2ccccc21	4.8	8.6	3.4	inactive	–	–
Ic1ccc(NC2=NCCO2)cc1	2.9	1.3	2	–	–	Active
O=C(NCCCl)Nc1cccc2c1CCC2	–	95	–	–	–	–
O=C(NCCCl)Nc1ccc2c(c1)Cc1ccccc1-2	14.2	2.3	5.1	–	Active	–
c1cc2c(c(NC3=NCCO3)c1)CCC2	26	16	30	–	–	–
Cc1cc(C)cc(NC2=NCCO2)c1	19	7	12	–	–	–
Cc1cccc(NC2=NCCO2)c1C	15	9	17	inactive	–	–
Cc1cccc(NC(=O)NCCCl)c1	–	39	81	–	–	–
c1cc2c(cc1NC1=NCCO1)CCC2	9.1	4.9	8.1	–	Active	Active
c1ccc2c(c1)-c1ccccc1C2NC1=NCCO1	11	15	17	–	–	–
Cc1ccc(C)c(NC2=NCCO2)c1	72	44	73	–	–	–
CC(=O)O[C@H]1C(=O)[C@@]2(C)[C@H]([C@H](OC(=O)c3ccccc3)[C@]3(O)C[C@H](OC(=O)[C@H](O)[C@@H](NC(=O)c4ccccc4)c4ccccc4)C(C)=C1C3(C)C)[C@]1(OC(C)=O)CO[C@@H]1C[C@@H]2O [PACLITAXEL]	0.054	0.015	0.037	–	–	–
COc1cc2c(c(OC)c1OC)-c1ccc(OC)c(=O)cc1[C@@H](NC(C)=O)CC2 [COLCHICINE]	0.009	0.004	0.015	–	–	–

Continued, in another order:

GI50 [2] [µM]	GI50 [3] [µM]	SMILES	GI50 [1] [µM]	Activity [4]	Activity [5]	Activity [6]
4.8	3.3	CC(C)(C)c1ccc(NC(=O)NC(=O)CCl)cc1	1.1	–	–	–
7.4	6.6	Cc1cccc(C)c1NC(=O)NC(=O)CCl	6.3	inactive	–	–
4	7	O=C(CCl)NC(=O)Nc1ccc2c(c1)CCC2	1.7	inactive	–	–
7.5	10	Cc1ccc(NC(=O)NC(=O)CCl)cc1	4.9	inactive	–	–
6.5	6	Cc1cccc(NC(=O)NC(=O)CCl)c1C	4.7	inactive	–	–
5	13	O=C(CCl)NC(=O)Nc1ccc2c(c1)Cc1ccccc1-2	4.8	inactive	–	–
6.1	9	Cc1cccc(NC(=O)NC(=O)CCl)c1	4	inactive	–	–
6	1.9	O=C(NCCCl)Nc1ccc(I)cc1	3.9	–	–	–
8.6	11	Cc1ccc(NC(=O)NC(=O)CCl)c(C)c1	7.4	inactive	–	–
2.2	3.2	O=C(CCl)NC(=O)Nc1cccc2c1CCC2	4.9	inactive	–	–
5.5	6.9	Cc1ccc(NC(=O)NC(=O)CCl)cc1C	4.3	inactive	–	–
4.3	6.1	Cc1cc(C)cc(NC(=O)NC(=O)CCl)c1	3.7	inactive	–	–
10.6	9.8	Cc1ccccc1NC(=O)NC(=O)CCl	6.9	inactive	–	–
6.8	6.9	O=C(CCl)NC(=O)Nc1ccc(I)cc1	4.2	–	–	–
6.2	2.3	CC(C)(C)c1ccc(NC(=O)NCCCl)cc1	4.3	–	–	–
44	16	Cc1ccc(NC(=O)NCCCl)cc1	33	–	–	–
5.8	6.7	Cc1ccc(C)c(NC(=O)NC(=O)CCl)c1	3.8	inactive	–	–
